Read-outs that look alike come from different tables or passages of the source.
Legend:
[1] = test system: JAK1/TYK2 pSTAT5 (Tyr694/699) in THP-1 cell line; experiment: IFNa-stimulated JAK1/TYK2 pSTAT5 (Tyr694/699) inhibition cellular assay, AlphaLISA; format: cell-based; conditions: THP-1 cells, IFNa-stimulated, AlphaLISA (Assay B), read-out: Cellular THP1_IFNa-pSTATS_IC50
Method in brief: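 The readout is AlphaLISA signal at 615 nm for phospho-STAT5 in THP-1 lysates after IFNa stimulation (added at 100 ng/mL, 30 min, 37 °C). Cells had compound for 1 h beforehand across eight 6-fold concentrations up to 10000 nM final. IC50s are 4PL fits with bottom and Hill slope constrained.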

TYK2 JH2 = target: T1, TYK2 JH2 (Homo sapiens, UniProt P29597); experiment: TYK2 JH2 binding assay (KINOMEscan KdELECT competitive binding); conditions: TYK2 JH2 domain, KINOMEscan KdELECT (Assay A); read-out: Biochemical TYK2_JH2_Kd
T1 construct: purchased DiscoverX (KINOMEscan KdELECT service); host or cells: E. coli BL21-derived (T7 phage display) or HEK-293
Method in brief: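 Test compounds were titrated in 11 three-fold steps against JH2 fragment captured on ligand-loaded magnetic beads, with 1 h incubation at room temperature and DMSO at 0.9%. Eluted kinase was quantified by qPCR, and Kd was fitted from the dose series.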

T1 sequence (P29597 589-875 limits assumed): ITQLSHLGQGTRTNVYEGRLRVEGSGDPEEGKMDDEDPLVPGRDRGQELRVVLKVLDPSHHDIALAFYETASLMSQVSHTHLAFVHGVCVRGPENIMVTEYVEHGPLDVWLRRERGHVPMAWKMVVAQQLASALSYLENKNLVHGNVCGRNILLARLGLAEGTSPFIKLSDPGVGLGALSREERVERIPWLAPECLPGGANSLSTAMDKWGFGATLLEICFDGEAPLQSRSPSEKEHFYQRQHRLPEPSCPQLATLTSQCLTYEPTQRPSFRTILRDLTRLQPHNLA

Compound	IC50 ([1]; Homo sapiens) [µM]	Kd (TYK2 JH2) [µM]	IC50 [1] [µM]
CNc1ncc(-c2ccns2)c2cc(NC(=O)C3CC3)ncc12 [Example 84, N-(5-(isothiazol-5-yl)-8-(methylamino)-2,7-naphthyridin-3-yl)cyclopropanecarboxamide]	> 0.5	≤ 0.1	
CNc1ncc(C2=CCOC2=O)c2cc(NC(=O)C3CC3)ncc12 [Example 85, N-(8-(methylamino)-5-(2-oxo-2,5-dihydrofuran-3-yl)-2,7-naphthyridin-3-yl)cyclopropanecarboxamide]	> 0.5	0.1 to 1	
CNc1ncc(C2CCOC2=O)c2cc(NC(=O)C3CC3)ncc12 (stereo not shown) [Example 86, N-(8-(methylamino)-5-(2-oxotetrahydrofuran-3-yl)-2,7-naphthyridin-3-yl)cyclopropanecarboxamide]	> 0.5	≤ 0.1	
CNc1ncc(-c2ccn(CC#N)n2)c2cc(NC(=O)C3CC3)ncc12 [Example 87, N-(5-(1-(cyanomethyl)-1H-pyrazol-3-yl)-8-(methylamino)-2,7-naphthyridin-3-yl)cyclopropanecarboxamide]	> 0.5	≤ 0.1	
CNc1ncc(CC(F)(F)F)c2cc(NC(=O)C3CC3)ncc12 [Example 88, N-(8-(methylamino)-5-(2,2,2-trifluoroethyl)-2,7-naphthyridin-3-yl)cyclopropanecarboxamide]	> 0.5	≤ 0.1	
CNc1ncc(-c2ncccc2OC)c2cc(NC(C)=O)ncc12 [Example 89, N-(5-(3-methoxypyridin-2-yl)-8-(methylamino)-2,7-naphthyridin-3-yl)acetamide]	> 0.5	0.1 to 1	
CNc1ncc(-c2ccccc2)c2cc(NC(C)=O)ncc12 [Example 90, N-(8-(methylamino)-5-phenyl-2,7-naphthyridin-3-yl)acetamide]	> 0.5	≤ 0.1	
CNc1ncc(-c2ncccc2OC)c2cc(Nc3ccccn3)ncc12 [Example 91, 4-(3-methoxypyridin-2-yl)-N^1-methyl-N^6-(pyridin-2-yl)-2,7-naphthyridine-1,6-diamine]	> 0.5	0.1 to 1	
CNc1ncc(-c2ccccc2)c2cc(Nc3ccccn3)ncc12 [Example 92, N^1-methyl-4-phenyl-N^6-(pyridin-2-yl)-2,7-naphthyridine-1,6-diamine]	> 0.5	≤ 0.1	
CNc1ncc(-c2ccccc2)c2cc(NCC3CC3)ncc12 [Example 93, N^6-(cyclopropylmethyl)-N^1-methyl-4-phenyl-2,7-naphthyridine-1,6-diamine]	> 0.5	1 to 10	
CNc1ncc(-c2ccccc2)c2cc(NCC(F)(F)F)ncc12 [Example 94, N^1-methyl-4-phenyl-N^6-(2,2,2-trifluoroethyl)-2,7-naphthyridine-1,6-diamine]	> 0.5	0.1 to 1	
O=C(Nc1cc2c(-c3ccccc3)cnc(Cl)c2cn1)C1CC1 [Example 95, N-(8-chloro-5-phenyl-2,7-naphthyridin-3-yl)cyclopropanecarboxamide]	> 0.5	0.1 to 1	
CCc1ncc(-c2ccccc2)c2cc(NC(=O)C3CC3)ncc12 [Example 96, N-(8-ethyl-5-phenyl-2,7-naphthyridin-3-yl)cyclopropanecarboxamide]	> 0.5	≤ 0.1	
CNc1ncc(-c2ccccc2)c2cc(NCc3ccc(OC)cc3)ncc12 [Example 98, N^6-(4-methoxybenzyl)-N^1-methyl-4-phenyl-2,7-naphthyridine-1,6-diamine]	> 0.5	1 to 10	
CNc1ncc(-c2ccccc2)c2cc(NC(=O)C3(C)CC3)ncc12 [Example 101, 1-methyl-N-(8-(methylamino)-5-phenyl-2,7-naphthyridin-3-yl)cyclopropane-1-carboxamide]	> 0.5	≤ 0.1	
CNc1ncc(-c2ccccc2)c2cc(NC(=O)C3CC3F)ncc12 (stereo not shown) [Example 103, 2-fluoro-N-(8-(methylamino)-5-phenyl-2,7-naphthyridin-3-yl)cyclopropane-1-carboxamide]	> 0.5	≤ 0.1	
CNc1ncc(-c2ccccc2)c2cc(NC(=O)C3CC3F)ncc12 (stereo not shown) [Example 104, 2-fluoro-N-(8-(methylamino)-5-phenyl-2,7-naphthyridin-3-yl)cyclopropane-1-carboxamide]		≤ 0.1	> 0.5
CNc1ncc(-c2ccccc2)c2cc(NC(=O)C3CC3(F)F)ncc12 (stereo not shown) [Example 105, 2,2-difluoro-N-(8-(methylamino)-5-phenyl-2,7-naphthyridin-3-yl)cyclopropane-1-carboxamide]	> 0.5	≤ 0.1	

Compound	IC50 ([1]; Homo sapiens) [µM]	Kd (TYK2 JH2) [µM]	IC50 [1] [µM]
CNc1ncc(-c2c[nH]c3ncccc23)c2cc(NC(=O)C3CC3)ncc12 [Example 106, N-(8-(methylamino)-5-(1H-pyrrolo[2,3-b]pyridin-3-yl)-2,7-naphthyridin-3-yl)cyclopropanecarboxamide]	> 0.5	≤ 0.1	
CNc1ncc(-c2ccc3c(c2)OCCO3)c2cc(NC(=O)C3CC3)ncc12 [Example 108, N-(5-(2,3-dihydrobenzo[b][1,4]dioxin-6-yl)-8-(methylamino)-2,7-naphthyridin-3-yl)cyclopropanecarboxamide]	> 0.5	≤ 0.1	
CNc1ncc(-c2ccc(C(F)(F)F)cc2)c2cc(NC(=O)C3CC3)ncc12 [Example 109, N-(8-(methylamino)-5-(4-(trifluoromethyl)phenyl)-2,7-naphthyridin-3-yl)cyclopropanecarboxamide]	> 0.5	≤ 0.1	
CNc1ncc(-c2ccc(OC(F)(F)F)cc2)c2cc(NC(=O)C3CC3)ncc12 [Example 110, N-(8-(methylamino)-5-(4-(trifluoromethoxy)phenyl)-2,7-naphthyridin-3-yl)cyclopropanecarboxamide]	> 0.5	≤ 0.1	
CNc1ncc(-c2ccc(OCC(F)(F)F)cc2)c2cc(NC(=O)C3CC3)ncc12 [Example 111, N-(8-(methylamino)-5-(4-(2,2,2-trifluoroethoxy)phenyl)-2,7-naphthyridin-3-yl)cyclopropanecarboxamide]	> 0.5	≤ 0.1	
CNc1ncc(-c2ccc(OC(F)F)cc2)c2cc(NC(=O)C3CC3)ncc12 [Example 112, N-(5-(4-(difluoromethoxy)phenyl)-8-(methylamino)-2,7-naphthyridin-3-yl)cyclopropanecarboxamide]	> 0.5	≤ 0.1	
CNc1ncc(-c2ccc(C3CC3)cc2)c2cc(NC(=O)C3CC3)ncc12 [Example 113, N-(5-(4-cyclopropylphenyl)-8-(methylamino)-2,7-naphthyridin-3-yl)cyclopropanecarboxamide]	> 0.5	≤ 0.1	
CNc1ncc(-c2cc3ccccc3o2)c2cc(NC(=O)C3CC3)ncc12 [Example 114, N-(5-(benzofuran-2-yl)-8-(methylamino)-2,7-naphthyridin-3-yl)cyclopropanecarboxamide]	≤ 0.5	≤ 0.1	
CNc1ncc(-c2cnn(CCOC)c2)c2cc(NC(=O)C3CC3)ncc12 [Example 115, N-(5-(1-(2-methoxyethyl)-1H-pyrazol-4-yl)-8-(methylamino)-2,7-naphthyridin-3-yl)cyclopropanecarboxamide]	> 0.5	≤ 0.1	
CNc1ncc(-c2cccc(F)c2)c2cc(NC(=O)C3CC3)ncc12 [Example 116, N-(5-(3-fluorophenyl)-8-(methylamino)-2,7-naphthyridin-3-yl)cyclopropanecarboxamide]	> 0.5	≤ 0.1	
CNc1ncc(-c2ccc(OC3CC3)cc2)c2cc(NC(=O)C3CC3)ncc12 [Example 117, N-(5-(4-cyclopropoxyphenyl)-8-(methylamino)-2,7-naphthyridin-3-yl)cyclopropanecarboxamide]	> 0.5	≤ 0.1	
CNc1ncc(/C(C)=C/c2ccccc2)c2cc(NC(=O)C3CC3)ncc12 [Example 118, (E)-N-(8-(methylamino)-5-(1-phenylprop-1-en-2-yl)-2,7-naphthyridin-3-yl)cyclopropanecarboxamide]	≤ 0.5	≤ 0.1	
CNc1ncc(-c2ccccc2COC)c2cc(NC(=O)C3CC3)ncc12 [Example 119, N-(5-(2-(methoxymethyl)phenyl)-8-(methylamino)-2,7-naphthyridin-3-yl)cyclopropanecarboxamide]	> 0.5	≤ 0.1	
CNc1ncc(C(=O)O)c2cc(NC(=O)C3CC3)ncc12 [Example 120, 6-(cyclopropanecarboxamido)-1-(methylamino)-2,7-naphthyridine-4-carboxylic acid]	> 0.5	0.1 to 1	
CNC(=O)c1cnc(NC)c2cnc(NC(=O)C3CC3)cc12 [Example 124, 6-(cyclopropanecarboxamido)-N-methyl-1-(methylamino)-2,7-naphthyridine-4-carboxamide]	> 0.5	≤ 0.1	
C#Cc1cnc(NC)c2cnc(NC(=O)C3CC3)cc12 [Example 125, N-(5-ethynyl-8-(methylamino)-2,7-naphthyridin-3-yl)cyclopropanecarboxamide]	> 0.5	≤ 0.1	
CNc1ncc(-c2cc(Br)no2)c2cc(NC(=O)C3CC3)ncc12 [Example 126, N-(5-(3-bromoisoxazol-5-yl)-8-(methylamino)-2,7-naphthyridin-3-yl)cyclopropanecarboxamide]	> 0.5	≤ 0.1	

Reference: patent US20240025906A1 (NEURON23, INC., priority 2022, published 2024)
